Molecular target: Prostaglandin E2 receptor EP2 subtype (Homo sapiens) (UniProt P43116)
Experiment: EP2 receptor modulators, dose response, cell-based, human EP2, PGE2 EC50 shift (AID 1421)
Conditions: EP2-expressing cells, PGE2 EC50 shift by compound; measured here: PGE2 EC50 at 6.7 uM compound

Chain of Prostaglandin E2 receptor EP2 subtype (Homo sapiens) (P43116 whole entry, looked up): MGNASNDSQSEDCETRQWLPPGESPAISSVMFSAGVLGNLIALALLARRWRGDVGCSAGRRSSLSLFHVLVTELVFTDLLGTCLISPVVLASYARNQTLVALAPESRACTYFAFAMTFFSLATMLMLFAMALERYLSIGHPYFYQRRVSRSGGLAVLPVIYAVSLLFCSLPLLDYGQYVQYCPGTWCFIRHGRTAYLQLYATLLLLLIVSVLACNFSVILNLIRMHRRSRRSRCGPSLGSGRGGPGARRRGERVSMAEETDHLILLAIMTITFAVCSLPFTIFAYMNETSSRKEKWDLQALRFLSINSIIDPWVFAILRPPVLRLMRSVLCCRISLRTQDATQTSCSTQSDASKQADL

PGE2 EC50 with compound [nM]	Structure (SMILES)
2.5	Cc1ccc(Cn2c(Cc3ccccc3)nc3ccccc32)cc1
1.15	COc1cc(C2Oc3cc(C4Oc5cc(O)cc(O)c5C(=O)C4O)ccc3OC2CO)ccc1O (stereo not drawn)
1.31	Cn1nc(C(F)(F)F)c(/C=N/OC(=O)c2ccccc2)c1Sc1ccc(Cl)cc1

Second part, the compound before the results:

Structure (SMILES)	PGE2 EC50 with compound [nM]
Cc1ccc(C)c(N=C2CCCN2Cc2ccccc2)c1C#N	0.61
Nc1nc(Cc2ccccc2)nc(Cc2ccccc2)c1-c1ccccc1	0.79
COc1ccccc1CNC(=O)C1(c2ccc(Cl)cc2)CC1	0.82
COc1ccc(C(=O)c2ccccc2)c(O)c1	0.92
O=C(Nc1ccccc1-c1nc2ccccc2s1)c1ccc(Br)o1	1.02
